The values below come from patent US20080267981A1, “Compositions and Methods for Delivery of Antitumor Agents” (The Scripps Research Institute, priority 2004, published 2008).

The conditions of assay [1]: Parrish et al. 2003; different cell line, exposure time and cytotoxicity assay; read-out: IC50, previously obtained values; cited from earlier work.
The test system of assay [2] is HdFa cells. Briefly: MTT cell proliferation assay on normal HdFa cells. It is filed as cell-based, human. The conditions noted are these: normal HdFa cells versus SW1990 cancer cells. On the procedure:
Cell proliferation assay. The cytotoxicity of scFv-drug or free drug was quantified by using the Vybrant MTT cell proliferation assay kit (Molecular Probes). Assays were performed using 48-well microtiter plates containing 2×10^4 SW1990 (HdFa) cells/well in 300 μL of phenol-free growth medium. Cells were allowed to attach to the wells for 12 hours. For determination of IC50, cells were incubated for 3 or 12 h at 37° C. with various concentrations of Pan10-drug conjugates, maleimide derivatives or free drugs. Then the incubation was continued in conjugate/drug-free medium and the MTT assay was performed at the end of the seventh day. Medium was replaced with 100 μL of fresh medium containing 1.2 mM MTT and the incubation continued for three more hours. The cells were then lysed by adding 100 μL of a 10 mM solution of HCL containing SDS (100 mg/mL). The cell lysis was allowed to proceed for a period of 8 hours at the end of which the plate was centrifuged at 3000 rpm for 3 min and the supernatant transferred in a 96-well plate and read at 570 nm. Each assay included a […]. All assays were performed at least twice. A set of 8 data points was obtained with various concentration of cytotoxicity agent. […]
(Tetrazolium assays rely on reduction of a dye to a coloured formazan, in cell work by metabolically active cells.)

For assay [3], the system named is SW1990 cells. The assay is described as follows: MTT cell proliferation assay on SW1990 cells. Type of assay: cell-based. The conditions noted are these: Homo sapiens. On the procedure:
Cell proliferation assay. The cytotoxicity of scFv-drug or free drug was quantified by using the Vybrant MTT cell proliferation assay kit (Molecular Probes). Assays were performed using 48-well microtiter plates containing 2×10^4 SW1990 (HdFa) cells/well in 300 μL of phenol-free growth medium. Cells were allowed to attach to the wells for 12 hours. For determination of IC50, cells were incubated for 3 or 12 h at 37° C. with various concentrations of Pan10-drug conjugates, maleimide derivatives or free drugs. Then the incubation was continued in conjugate/drug-free medium and the MTT assay was performed at the end of the seventh day. Medium was replaced with 100 μL of fresh medium containing 1.2 mM MTT and the incubation continued for three more hours. The cells were then lysed by adding 100 μL of a 10 mM solution of HCL containing SDS (100 mg/mL). The cell lysis was allowed to proceed for a period of 8 hours at the end of which the plate was centrifuged at 3000 rpm for 3 min and the supernatant transferred in a 96-well plate and read at 570 nm. Each assay included a […]. All assays were performed at least twice. A set of 8 data points was obtained with various concentration of cytotoxicity agent. In order to obtain the IC50 values, data points from each set were fit to the sigmoidal dose-response curve defined by Equation 3 using Grafit5 (Leatherbarrow R. J. 2003. Grafit version 5.08, Erithieus Software Ltd, Staines, England).
y^a=min y+[(max y−min y)/(1+(IC50/x^b)^slope)] (Equation 3)
^bx=concentration of drug (drug-scF)
Data points which were outliers (typically 1-2 per experiment) were discarded.
SW1990 cells treated with Pan10, Pan10-FM, Pan10-3 or Pan10-4 were examined by inverted microscopy for a qualitative determination of the effect of the drug conjugates on the cell viability. […] The cytotoxic effect of the Pan10-drug conjugates in comparison with the toxicity of the free drugs was then quantified by the MTT (3-(4,5-dimethylthiazol-2-yl)-2,5,-diphenyltetrazolium bromide) cell-proliferation assay. Liu et al., J Neurochem, 69: 581-593, 1997; Berridge et al., Arch Biochem Biophys, 303: 474-482, 1993; Vistica et al., Cancer Res, 51: 2515-2520, 1991. SW1990 pancreatic carcinoma cells were seeded and allowed to attach in growth medium overnight. The cultures were then treated for either 3 or 12 h with increasing concentrations of free drugs or Pan10-drug conjugates.

On to `CC(=O)c1ccc2[nH]c(C(=O)N3C[C@@H](CCl)c4c3cc(O)c3ccccc43)cc2c1` [compound 1, 3-(5-acetylindole-2-carbonyl)-1-(S)-(chloromethyl)-5-hydroxy-1,2-dihydro-3H-benz[e]indole], for which the IC50 in assay [1] is 0.002 nM; in assay [3] (SW1990, 3 h), 1.4 ± 0.2 nM; in assay [3] (SW1990, 12 h), 0.43 ± 0.17 nM. The “IC50 on HdFa cells relative to IC50 against SW1990 cells” value in assay [2] was “roughly the same IC50 values against both cells lines”.
Turning to `NCCCn1c(C(=O)Nc2ccc3[nH]c(C(=O)N4CC(CCl)c5c4cc(O)c4ccccc54)cc3c2)cc2ccccc21` (stereo not shown) [compound 2, 3-[5-(1-(3-aminopropyl)indole-2-carbonyl)aminoindole-2-carbonyl]-1-(chloromethyl)-5-hydroxy-1,2-dihydro-3H-benz[e]indole], the IC50 is 0.03 nM in assay [1]; 32.1 ± 13.1 nM in assay [3] (SW1990, 3 h); 4.3 ± 0.2 nM in assay [3] (SW1990, 12 h).

Broadly, the IC50 is the midpoint of a concentration-inhibition curve.
